The target of assay [1] is T1, Adenosine receptor A1 (Rattus norvegicus, UniProt P25099).
T1 sequence (P25099 whole entry): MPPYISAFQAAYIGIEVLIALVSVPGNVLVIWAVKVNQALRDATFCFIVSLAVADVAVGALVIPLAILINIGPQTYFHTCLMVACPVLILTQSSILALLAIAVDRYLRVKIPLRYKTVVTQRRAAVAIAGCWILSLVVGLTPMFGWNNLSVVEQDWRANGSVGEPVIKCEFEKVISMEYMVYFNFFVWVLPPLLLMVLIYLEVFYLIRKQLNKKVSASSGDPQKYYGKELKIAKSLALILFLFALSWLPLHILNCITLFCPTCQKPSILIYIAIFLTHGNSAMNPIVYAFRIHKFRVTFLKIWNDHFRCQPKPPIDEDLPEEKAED
Description: biochemical.
Description: Binding affinity against Adenosine A1 receptor from rat cerebral cortex was determined using [3H]DPCPX as radioligand

In assay [2] the target is Adenosine receptor A2a (Rattus norvegicus, UniProt P30543).
Description: Binding affinity against Adenosine A2a receptor determined using [3H]ZM-241385 as radioligand
Assay [3] concerns Mus musculus. Description: Dose required for oral activity against mice catalepsy induced by 3 mg/kg haloperidol after s.c. administration. It counts as functional.

For 13 molecules, Ki and Dose results are on record in ChEMBL document CHEMBL1137863, “Triamino derivatives of triazolotriazine and triazolopyrimidine as adenosine A2a receptor antagonists” (Bioorg Med Chem Lett, 2004).

pKi: −log10 of the molar value.

Adenosine receptor A2a, sequence (P30543 whole entry): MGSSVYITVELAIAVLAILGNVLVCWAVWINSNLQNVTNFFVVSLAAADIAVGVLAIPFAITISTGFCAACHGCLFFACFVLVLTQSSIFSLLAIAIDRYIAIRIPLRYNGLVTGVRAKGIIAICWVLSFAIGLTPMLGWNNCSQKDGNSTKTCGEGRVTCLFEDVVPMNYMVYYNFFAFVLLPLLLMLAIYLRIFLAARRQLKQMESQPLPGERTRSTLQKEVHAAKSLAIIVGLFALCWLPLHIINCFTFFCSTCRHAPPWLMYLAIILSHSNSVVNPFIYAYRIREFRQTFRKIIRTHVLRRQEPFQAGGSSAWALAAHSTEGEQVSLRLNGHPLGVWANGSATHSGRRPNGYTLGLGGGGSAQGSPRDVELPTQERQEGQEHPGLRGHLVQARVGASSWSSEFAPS

For the molecule `CN(CCN1CCN(c2ccccc2)CC1)c1nc(N)n2nc(-c3ccco3)nc2n1`, the pKi (as a rule, the negative decadic logarithm of the Ki, by convention in mol/L) in assay [1] was 5.82; in assay [2] it was 7.96. Further, in assay [3], the Dose amounted to 3 mg/kg.

`CN(CCN1CCN(c2ccc(F)cc2F)CC1)c1cc2nc(-c3ccco3)nn2c(N)n1` showed a pKi in assay [1] of 6.12. The molecule further yielded a Dose in assay [3] of 3 mg/kg.

Turning to `Nc1nc(NCCN2CCN(c3c(F)cc(F)cc3F)CC2)cc2nc(-c3ccco3)nn12`, the pKi was less than 6.30 in assay [1] and 7.04 in assay [2].

`Nc1nc(NCCCN2CCN(c3ccc(F)cc3F)CC2)nc2nc(-c3ccco3)nn12`: the pKi was less than 6.30 in assay [1] and 7.03 in assay [2].

Take `Nc1nc(N2CCN(c3c(F)cc(F)cc3F)CC2)nc2nc(-c3ccco3)nn12`: the pKi in assay [2] was 7.54.

For `CN(CCN1CCN(c2ccc(F)cc2F)CC1)c1nc(N)n2nc(-c3ccco3)nc2n1`, in assay [3], the Dose stood at 3 mg/kg.

On to `Nc1nc(NCCN2CCN(c3ccccc3)CC2)nc2nc(-c3ccco3)nn12`, for which the pKi is less than 6.30 in assay [1] and 7.66 in assay [2]. In addition, in assay [3], the Dose is greater than 10 mg/kg.

For `Nc1nc(NCCCN2CCN(c3c(F)cc(F)cc3F)CC2)nc2nc(-c3ccco3)nn12`, the pKi was less than 6.30 in assay [1] and 7.00 in assay [2].

As to `Nc1nc(NCCCN2CCN(c3ccccc3)CC2)nc2nc(-c3ccco3)nn12`, the pKi in assay [1] was less than 6.30.

Take `CN(CCN1CCN(c2c(F)cc(F)cc2F)CC1)c1cc2nc(-c3ccco3)nn2c(N)n1`: the results for the pKi in assay [1] and in assay [2] were 6.10 and 7.62, respectively.

Consider `Nc1nc(NCCN2CCN(c3c(F)cc(F)cc3F)CC2)nc2nc(-c3ccco3)nn12`, for which the pKi in assay [1] is less than 6.30; in assay [2] it was 7.62.

In assay [1], `Nc1nc(NCCN2CCN(c3ccc(F)cc3F)CC2)nc2nc(-c3ccco3)nn12` showed a pKi of 5.96. The Dose in assay [3] worked out at 10 mg/kg.

Regarding `Nc1nc(NCCN2CCN(c3ccc(F)cc3F)CC2)cc2nc(-c3ccco3)nn12`, the pKi in assay [1] was 5.59; in assay [2], 7.26. In assay [3], this molecule displayed a Dose greater than 10 mg/kg.
